This note sets out measurements from patent US20100099564A1, “HERBICIDE COMBINATION COMPRISING DIMETHOXYTRIAZINYL-SUBSTITUTED DIFLUOROMETHANESULFONYLANILIDES” (BAYER CROPSCIENCE AG, priority 2008, published 2010).

Assay type in all cases: in vivo
Experiment [1] relates to Abuthilon theophrasti (ABUTH). The experiment can be described thus: Post-emergence action, greenhouse pot test, visual scoring: ABUTH. To be noted: 21 DAT. Here is the method:
(§1) Seeds or rhizome pieces of mono- and dicotyledonous harmful and useful plants were placed in peat pots (diameter 4 cm) filled with sandy loam and then covered with soil. The pots were kept in a greenhouse under optimum conditions. In addition, harmful plants encountered in paddy rice cultivation were cultivated in pots with a water level 2 cm above the soil surface.
(§2) About three weeks after the start of the cultivation, the test plants were treated at the 2- to 3-leaf stage. The herbicides, formulated as powder or liquid concentrates, were, either alone or in the combinations according to the invention, sprayed in various dosages on to the green parts of the plants using an application rate of 600 l of water/ha (converted). For further cultivation of the plants, the pots were then again kept under optimum conditions in a greenhouse.
(§3) The visual scoring of the herbicidal effects was carried out in intervals up to 21 days after the treatment. Scoring was carried out in percent in comparison to the untreated control plants. 0%=no herbicidal activity, 100%=complete herbicidal activity=complete kill.
(§4) The percentages from the treatments with the herbicides alone (=individual application) and with the combinations according to the invention (=mixtures) were employed to calculate interactions using the method of Colby. When the observed efficacies of the mixtures exceed the formal sum of the values of the tests with individual applications, they also exceed the expected value according to Colby, which is calculated using the formula below (cf. S. R. Colby; in Weeds 15 (1967) pp. 20 to 22):
(§5) Here: • A, B=activity of components A and B in percent at a dosage of a and b g of ai/ha (=gramm of active substance per hectare), respectively. • E=expected value in % at a dosage of a+b g of ai/ha.
(§6) The combinations according to the invention of herbicides from group (A) with herbicides from group (B) were tested on a broad spectrum of important harmful plants (weed grasses, broad-leaved weeds/Cyperaceae) and useful plants: Triticum aestivum (TRZAS), Stellaria media (STEME), Lolium multiflorum (LOLMU), Veronica persica (VERPE), Alopecurus myosuroides (ALOMY), Matricaria inodora (MATIN), Brassica napus (BRSNW), Viola tricolor (VIOTR), Avena fatua (AVEFA), Amaranthus retroflexus (AMARE), Zea mays (ZEAMX), Pharbitis purpurea (PHBPU), Setaria viridis (SETVI), Fallopia (ex Polygonum) convolvulus (POLCO), Echinochloa crusgaffi (ECHCG), Abuthilon theophrasti (ABUTH), Cyperus esculentus (CYPES), Oryza sativa (ORYSA).
(§7) Of particular interest are the results shown in the tables (Tab.) below, where the following key is used: • (1) EPPO code (former Bayer code) for the treated plant (see above) • (2) Time of scoring: DAT (days after treatment) • (3) Component A tested (identifying number) • (4) Component B tested (identifying number) • (5) Dosage component A [g of ai/ha] • (6) Dosage component B [g of ai/ha] • (7) % activity found • (8) E value (calculated according to Colby; see above) • (9) Comments: “SYNERGY” =synergistic interaction (E value<% activity found); “SAFENING”=safener action on useful plant (E value>% activity found)

Experiment [2] concerns Matricaria inodora (MATIN). The experiment can be described thus: Post-emergence action, greenhouse pot test, visual scoring: MATIN. As for the experimental part:
as §1, §2, §3, §4, §5

The subject of experiment [3] is Veronica persica (VERPE). The experiment can be described thus: Post-emergence action, greenhouse pot test, visual scoring: VERPE. Here is the method:
as §1, §2, §3, §4, §5, §6, §7

Experiment [4] concerns Triticum aestivum (TRZAS). As to the kind of experiment: Post-emergence action, greenhouse pot test, visual scoring: TRZAS. To be noted: Triticum aestivum, post-emergence, read-out: % activity found; for plant injury at 200 g/ha: B 200 g of ai/ha. As for the experimental part: as §1, §2, §3, §4, §5, §6, §7
For experiment [5], the system named is Avena fatua (AVEFA). As to the kind of experiment: Post-emergence action, greenhouse pot test, visual scoring: AVEFA. As for the experimental part: as §1, §2, §3, §4, §5, §6, §7
In experiment [6] the test system is Cyperus esculentus (CYPES). The experiment can be described thus: Post-emergence action, greenhouse pot test, visual scoring: CYPES. To be noted: 21 DAT. As for the experimental part: as §1, §2, §3, §4, §5
The test system of experiment [7] is Pharbitis purpurea (PHBPU). The experiment can be described thus: Post-emergence action, greenhouse pot test, visual scoring: PHBPU. To be noted: 21 DAT. Here is the method: as §1, §2, §3, §4, §5, §6, §7
Experiment [8] deals with Alopecurus myosuroides (ALOMY). The experiment can be described thus: Post-emergence action, greenhouse pot test, visual scoring: ALOMY. To be noted: Alopecurus myosuroides, post-emergence, read-out: % activity found. Here is the method:
as §1, §2, §3, §4, §5

Experiment [9] relates to Viola tricolor (VIOTR). As to the kind of experiment: Post-emergence action, greenhouse pot test, visual scoring: VIOTR. Here is the method:
as §1, §2, §3, §4, §5, §6, §7

Experiment [10] has as its system Fallopia (ex Polygonum) convolvulus (POLCO). As to the kind of experiment: Post-emergence action, greenhouse pot test, visual scoring: POLCO. The conditions noted are these: 21 DAT. Here is the method:
as §1, §2, §3, §4, §5, §6, §7

Experiment [11] concerns Stellaria media (STEME). As to the kind of experiment: Post-emergence action, greenhouse pot test, visual scoring: STEME. The conditions noted are these: 10 DAT. As for the experimental part:
as §1, §2, §3, §4, §5, §6, §7

Experiment [12] has as its system Amaranthus retroflexus (AMARE). As to the kind of experiment: Post-emergence action, greenhouse pot test, visual scoring: AMARE. The conditions noted are these: 21 DAT; dose (6) 300. As for the experimental part: as §1, §2, §3, §4, §5
In experiment [13] the test system is Oryza sativa (ORYSA). As to the kind of experiment: Post-emergence action, greenhouse pot test, visual scoring: ORYSA. To be noted: Oryza sativa, post-emergence, 504 h, 21 DAT, read-out: % activity found. Here is the method:
as §1, §2, §3, §4, §5, §6, §7

The subject of experiment [14] is Zea mays (ZEAMX). As to the kind of experiment: Post-emergence action, greenhouse pot test, visual scoring: ZEAMX. The conditions noted are these: Zea mays, post-emergence, read-out: % activity found; for plant injury at 200 g/ha: B 200 g of ai/ha; for plant injury at 700 g/ha: B 700 g of ai/ha; for plant injury at 2100 g/ha: B 2100 g of ai/ha. Here is the method:
as §1, §2, §3, §4, §5, §6, §7

The test system of experiment [15] is Setaria viridis (SETVI). As to the kind of experiment: Post-emergence action, greenhouse pot test, visual scoring: SETVI. To be noted: Setaria viridis, post-emergence, 504 h, 21 DAT, read-out: % activity found. Here is the method: as §1, §2, §3, §4, §5, §6, §7
Experiment [16] relates to Lolium multiflorum (LOLMU). The experiment can be described thus: Post-emergence action, greenhouse pot test, visual scoring: LOLMU. The conditions noted are these: 10 DAT, B 700 g of ai/ha. As for the experimental part: as §1, §2, §3, §4, §5, §6, §7
[17] abbreviates: 504 h, 21 DAT, B 700 g of ai/ha.

Where two headings read alike, the source gives them in different places.

Turning to `CCCOCCN(C(=O)CCl)c1c(CC)cccc1CC` [B4-8, 2-chloro-N-(2,6-diethylphenyl)-N-(2-propoxyethyl)acetamide], the “% activity found” value came out at 0% in [1] (dose (6) 100); 0% in experiment [1] (dose (6) 300); 0% in [2] (10 DAT, dose (6) 100); 0% in experiment [2] (21 DAT, dose (6) 100); 0% in experiment [3] (10 DAT, dose (6) 100); 0% in experiment [3] (10 DAT, dose (6) 300). The “% activity found” value is listed as 0% in [3] (21 DAT, dose (6) 100); 0% in experiment [3] (21 DAT, dose (6) 300); 0% in [5] (10 DAT, dose (6) 100); 0% in experiment [5] (21 DAT, dose (6) 100); 30% in experiment [5] (21 DAT, dose (6) 300); 0% in experiment [6] (dose (6) 100). In addition, the “% activity found” value in experiment [6] (dose (6) 300) worked out at 0%; in experiment [7] (dose (6) 100), 0%; in experiment [7] (dose (6) 300) it was 0%; in experiment [9] (21 DAT, dose (6) 100) it was 10%; in [10] (dose (6) 100), 0%; in [10] (dose (6) 300), 20%. In addition, the “% activity found” value in experiment [11] (dose (6) 100) is listed as 10%; in experiment [11] (dose (6) 300), 10%; in experiment [12] it was 20%. In addition, the plant injury at 300 g/ha in experiment [4] (240 h, 10 DAT, B 300 g of ai/ha) turned out to be 10%. In addition, the pest or weed control at 100 g/ha in experiment [8] (240 h, 10 DAT, B 100 g of ai/ha) was found to be 10%.
Take `CN(C(=O)COc1nc2ccccc2s1)c1ccccc1` [B3-4, 2-(2-benzothiazolyloxy)-N-methyl-N-phenylacetamide]: the “% activity found” value in [1] (B 200 g of ai/ha) came to 0%; in experiment [1] (B 600 g of ai/ha), 0%; in [2] (10 DAT, B 200 g of ai/ha), 0%; in [2] (10 DAT, B 600 g of ai/ha), 0%; in [2] (21 DAT, B 200 g of ai/ha), 0%; in experiment [2] (21 DAT, B 600 g of ai/ha), 20%. Moreover, the “% activity found” value is given as 0% in experiment [5] (21 DAT, B 200 g of ai/ha); 0% in experiment [6] (B 200 g of ai/ha); 0% in [6] (B 600 g of ai/ha); 0% in experiment [7] (B 200 g of ai/ha); 0% in experiment [9] (10 DAT, B 200 g of ai/ha); 0% in [9] (10 DAT, B 600 g of ai/ha). Besides, the “% activity found” value in experiment [10] (B 200 g of ai/ha) was 0%; in [10] (B 600 g of ai/ha) it was 0%; in experiment [11] (B 200 g of ai/ha), 10%. The plant injury at 600 g/ha in experiment [13] (B 600 g of ai/ha) amounted to 20%; in [14] (504 h, 21 DAT, B 600 g of ai/ha), 10%. In addition, the plant injury at 200 g/ha worked out at 10% in [4] (240 h, 10 DAT); 0% in experiment [4] (504 h, 21 DAT); 0% in experiment [14] (240 h, 10 DAT); 0% in experiment [14] (504 h, 21 DAT). In [15] (B 200 g of ai/ha), the pest or weed control at 200 g/ha amounted to 30%.
Take `CCC(=O)Nc1ccc(Cl)c(Cl)c1` [B3-8, N-(3,4-dichlorophenyl)propanamide]: the “% activity found” value is 0% in experiment [2] (10 DAT, B 700 g of ai/ha); 0% in [2] (10 DAT, B 2100 g of ai/ha); 0% in experiment [2] (21 DAT, B 700 g of ai/ha); 0% in experiment [2] (21 DAT, B 2100 g of ai/ha); 0% in experiment [16]; 20% in experiment [5] (10 DAT, B 700 g of ai/ha). Further, the “% activity found” value in [5] (21 DAT, B 700 g of ai/ha) is reported as 0%; in experiment [5] (21 DAT, B 2100 g of ai/ha) it was 10%; in experiment [6] (B 700 g of ai/ha), 0%; in [6] (B 2100 g of ai/ha), 0%; in experiment [7] (B 2100 g of ai/ha) it was 40%; in experiment [9] (21 DAT, B 700 g of ai/ha) it was 60%. Besides, the “% activity found” value in experiment [9] (21 DAT, B 2100 g of ai/ha) is on record as 70%; in experiment [10] (B 700 g of ai/ha), 50%. The plant injury at 700 g/ha worked out at 0% in [13] (B 700 g of ai/ha); 10% in experiment [4] (setting [17]); 0% in experiment [14] (240 h, 10 DAT); 0% in experiment [14] (504 h, 21 DAT). Moreover, the plant injury at 2100 g/ha worked out at 0% in [13] (B 2100 g of ai/ha); 0% in [14] (240 h, 10 DAT); 0% in [14] (504 h, 21 DAT). The pest or weed control at 700 g/ha in [8] (setting [17]) is 0%. Also, the pest or weed control at 2100 g/ha in [8] (504 h, 21 DAT, B 2100 g of ai/ha) was 20%; in [15] (B 2100 g of ai/ha) it was 80%.
